In ChEMBL document CHEMBL1133956, “Antagonists of the human CCR5 receptor as anti-HIV-1 agents. Part 3: a proposed pharmacophore model for 1-[N-(methyl)-N-(phenylsulfonyl)amino]-2-(phenyl)-4-[4-(substituted)piperidin-1-yl]butanes” (Bioorg Med Chem Lett, 2001) one finds inhibition and IC50 data, which are given here for 27 compounds.

One may read the inhibition as how much of the control response was suppressed. High values mean a response far below the control, low ones a response near the control. What is called IC50 is the concentration needed to halve the response being measured. Higher therefore signals weaker potency in that assay.

The target in the first assay is T1, C-C chemokine receptor type 5 (Homo sapiens, UniProt P51681). Briefly: Inhibition of [125I]-MIP-1 alpha binding to human CCR5 receptor expressed in Chinese hamster ovary (CHO) cells at 1000 nM;. The class given is cell-based.
Target sequence in this assay (P51681 whole entry, looked up): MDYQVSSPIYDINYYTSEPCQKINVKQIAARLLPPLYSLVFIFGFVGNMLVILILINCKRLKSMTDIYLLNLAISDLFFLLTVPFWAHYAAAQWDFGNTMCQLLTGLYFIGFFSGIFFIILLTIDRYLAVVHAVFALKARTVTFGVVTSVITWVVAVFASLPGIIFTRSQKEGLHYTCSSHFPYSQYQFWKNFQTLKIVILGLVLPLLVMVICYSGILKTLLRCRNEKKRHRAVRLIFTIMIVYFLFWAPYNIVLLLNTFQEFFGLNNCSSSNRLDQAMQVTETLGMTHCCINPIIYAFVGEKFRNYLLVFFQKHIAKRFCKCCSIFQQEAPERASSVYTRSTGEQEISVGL
`CN(C[C@@H](CCN1CCC2(CC1)CC(=O)c1ccccc1O2)c1cccc(Cl)c1)S(=O)(=O)c1ccccc1` showed an inhibition of 24%.

A further assay has as its target T1, C-C chemokine receptor type 5. As to the kind of experiment: Inhibition of [125I]-MIP-1 alpha binding to human CCR5 receptor expressed in Chinese hamster ovary (CHO) cells at 1000 nM. It is filed as cell-based.
Target sequence in this assay (P51681 whole entry, looked up): as above
Regarding `CN(C[C@@H](CCN1CCC2(CC1)CN(S(C)(=O)=O)c1ccccc12)c1cccc(Cl)c1)S(=O)(=O)c1ccccc1`, the inhibition stood at 12%.

`CN(C[C@@H](CCN1CCC(C(C)(C)C)CC1)c1cccc(Cl)c1)S(=O)(=O)c1ccccc1` displayed an inhibition of 40%. `CN(C[C@@H](CCN1CCCCC1)c1cccc(Cl)c1)S(=O)(=O)c1ccccc1` registered an inhibition of 27%.

The target is the same in a further assay. Briefly: Inhibition of [125I]-MIP-1 alpha binding to human CCR5 receptor expressed in Chinese hamster ovary (CHO) cells. The class given is cell-based.
Target sequence in this assay (P51681 whole entry): as the sequence (P51681 whole entry, looked up) above
On to `CN(C[C@@H](CCN1CCC2(CC1)CC(O)c1ccccc12)c1cccc(Cl)c1)S(=O)(=O)c1ccccc1` (some centres not stated), for which the IC50 was determined as 100 nM. On the same count and under the same terms, with `CN(C[C@@H](CCN1CCC2(CC1)NC(=O)c1ccccc12)c1cccc(Cl)c1)S(=O)(=O)c1ccccc1` the figure was 45 nM; with `CN(C[C@@H](CCN1CCC(CCc2ccccc2)CC1)c1cccc(Cl)c1)S(=O)(=O)c1ccccc1`, 65 nM. Compound `COc1ccccc1C1CCN(CC[C@H](CN(C)S(=O)(=O)c2ccccc2)c2cccc(Cl)c2)CC1` registered an IC50 of 70 nM. The same measure, in the same setting: with `CN(C[C@@H](CCN1CCN(c2ccccc2)CC1)c1cccc(Cl)c1)S(=O)(=O)c1ccccc1` the figure was 700 nM.

The compound `CN(C[C@@H](CCN1CCC(c2ccc(Cl)cc2)CC1)c1cccc(Cl)c1)S(=O)(=O)c1ccccc1` registered an IC50 of 200 nM. `CN(C[C@@H](CCN1CCC2(CC1)CC(=O)c1ccccc12)c1cccc(Cl)c1)S(=O)(=O)c1ccccc1` showed an IC50 of 5 nM. `CN(C[C@@H](CCN1CCC2(CCc3ccccc32)CC1)c1cccc(Cl)c1)S(=O)(=O)c1ccccc1` gave an IC50 of 180 nM. As for `CN1C(=O)c2ccccc2C12CCN(CC[C@H](CN(C)S(=O)(=O)c1ccccc1)c1cccc(Cl)c1)CC2`, the IC50 is 100 nM. For `CN(C[C@@H](CCN1CCC(CCCc2ccccc2)CC1)c1cccc(Cl)c1)S(=O)(=O)c1ccccc1`, the IC50 turned out to be 5 nM.

In turn, `Cc1ccccc1C1CCN(CC[C@H](CN(C)S(=O)(=O)c2ccccc2)c2cccc(Cl)c2)CC1` came in with an IC50 of 400 nM.

Turning to `CN(C[C@@H](CCN1CCC2(CC1)CC(=O)Nc1ccccc12)c1cccc(Cl)c1)S(=O)(=O)c1ccccc1`, the IC50 is 35 nM. Regarding `CN(C[C@@H](CCN1CCC2(CC1)CNc1ccccc12)c1cccc(Cl)c1)S(=O)(=O)c1ccccc1`, the half-maximal inhibitory concentration (IC50) turned out to be 50 nM. On the same count and under the same terms, in the case of `CN(C[C@@H](CCN1CCC2(CC1)CNC(=O)c1ccccc12)c1cccc(Cl)c1)S(=O)(=O)c1ccccc1` it was 35 nM. For `CN(C[C@@H](CCN1CCC2(CC1)Cc1ccccc1O2)c1cccc(Cl)c1)S(=O)(=O)c1ccccc1`, the half-maximal inhibitory concentration (IC50) was 260 nM. Turning to `CN(C[C@@H](CCN1CCC(c2cccc(C(F)(F)F)c2)CC1)c1cccc(Cl)c1)S(=O)(=O)c1ccccc1`, the half-inhibitory concentration (IC50) stood at 120 nM.

As to `Cc1ccccc1N1CCN(CC[C@H](CN(C)S(=O)(=O)c2ccccc2)c2cccc(Cl)c2)CC1`, the IC50 turned out to be 2400 nM. Still for that read-out and setting: in the case of `CN(C[C@@H](CCN1CCC(Cc2ccccc2)CC1)c1cccc(Cl)c1)S(=O)(=O)c1ccccc1` it was 250 nM; in that of `CN(C[C@@H](CCN1CCC(c2ccc(F)cc2)CC1)c1cccc(Cl)c1)S(=O)(=O)c1ccccc1`, 25 nM.

Another assay has the same target. Briefly: Inhibition of [125I]-MIP-1 alpha binding to human CCR5 receptor expressed in Chinese hamster ovary (CHO) cells; completely inactive. It is filed as cell-based.
Target sequence in this assay (P51681 whole entry): as the sequence (P51681 whole entry, looked up) above
As to `CN(C[C@@H](CCc1ccc(-c2ccccc2)cc1)c1ccc(Cl)c(Cl)c1)S(=O)(=O)c1ccccc1`, the IC50 was greater than 10000 nM. The same measure, in the same setting: with `CN(C[C@@H](CCNCCc1ccccc1)c1cccc(Cl)c1)S(=O)(=O)c1ccccc1` the figure was greater than 10000 nM; with `CN(C[C@@H](CCc1ccc(-c2ccccc2)cn1)c1ccc(Cl)c(Cl)c1)S(=O)(=O)c1ccccc1`, greater than 10000 nM. For `CN(CCc1ccccc1)CC[C@H](CN(C)S(=O)(=O)c1ccccc1)c1cccc(Cl)c1`, the IC50 was greater than 10000 nM.
